For this assay, the system named is S. sanguis. Briefly: Anti-bacterial activity of bioactive glass supernates, survivors enumerated by viable counting. The format is cell-based. As to conditions: non-bioactive glass derived alkaline solution, pH 9.8. Here is the method: Nutrient broth (10 ml) was added to 5 grams of particulate bioactive glass with a pore size between 355 and 500 μm, 5 grams of glass beads (not bioactive glass) with a particle size between 455 and 600 μm, and no glass beads. The resulting solutions were incubated with rotation for 1 h at 37 C. 950 μl of each supernatant was removed and added to 50 μl of an overnight culture of S. sanguis, and incubated for 1 h at 37 C. Survivors were enumerated by viable counting.

For the compound `[Na+].[OH-]` [NaOH], the kills is 40%.

(Values after patent publication US20040228905A1, “Anti-inflammatory and antimicrobial uses for bioactive glass compositions” (priority 1996, published 2004).)
